Measured values reported in PubChem BioAssay AID743235 (The Scripps Research Institute Molecular Screening Center, 2013).
The source made the active and inactive calls. The rule behind the calls is not given here.

Tested on: Counterscreen cells for TAAR1 agonist assay, fluorescence
Test: agonism at human TAAR1, counter-screen – cell-based, fluorescence, counter-screen for TAAR1 antagonist project, late-stage follow-up (AID 743235)

O=C(NCCn1cc(SCc2ccccc2F)c2ccccc21)c1c(F)cccc1F
EC50: > 29.9 µM (inactive)

Cc1ccc(CSCC(=O)Nc2cc(S(=O)(=O)N3CCOCC3)ccc2OCC(F)(F)F)cc1
EC50: > 29.9 µM (inactive)

CCOC(=O)C1CCCN(c2c(C(=O)c3ccccc3)cnc3ccc(OC)cc23)C1 (stereo unspecified)
EC50: 20.1 µM (inactive)

Cc1cccc(C(C#N)c2nc3ccccc3nc2C(F)(F)F)c1 (stereo unspecified)
EC50: > 29.9 µM (inactive)

COc1cc(NC(=O)c2cc3ccccc3o2)c(OC)cc1Cl
EC50: > 29.9 µM (inactive)

COc1cccc(-c2nn(-c3ccccc3)cc2C(=O)Nc2nccs2)c1
EC50: > 29.9 µM (inactive)
